Results published in the NIST ThermoML archive (doi:10.1021/je300972a).

Assay: refractive index (Na D-line) (dimensionless); xn = mol fraction of the nth substance listed
Settings: 101 kPa, Liquid, Standard Abbe refractometry

CCCC[n+]1ccc(C)cc1.O=S(=O)([N-]S(=O)(=O)C(F)(F)F)C(F)(F)F + CCCC[n+]1ccccc1.F[B-](F)(F)F
refractive index
Settings	293.15 K	303.15 K	313.15 K	323.15 K	333.15 K	343.15 K	353.15 K
x2 = 0	1.448	1.4449	1.4419	1.4388	1.4358	1.4328	1.4298
x2 = 0.0575	1.4479	1.4448	1.4418	1.4388	1.4357	1.4328	1.4298
x2 = 0.1136	1.4477	1.4446	1.4416	1.4386	1.4356	1.4327	1.4297
x2 = 0.2311	1.4474	1.4444	1.4414	1.4385	1.4356	1.4327	1.4298
x2 = 0.3515	1.4472	1.4443	1.4414	1.4385	1.4356	1.4327	1.4299
x2 = 0.4566	1.4471	1.4441	1.4413	1.4384	1.4356	1.4328	1.43
x2 = 0.5692	1.4469	1.4441	1.4413	1.4385	1.4357	1.433	1.4302
x2 = 0.673	1.4468	1.444	1.4413	1.4385	1.4358	1.4331	1.4304
x2 = 0.7836	1.4468	1.4441	1.4413	1.4386	1.4359	1.4333	1.4306
x2 = 0.889	1.4469	1.4442	1.4416	1.4389	1.4362	1.4336	1.431
x2 = 0.9535	1.447	1.4443	1.4417	1.439	1.4364	1.4338	1.4313
